What was measured:
[1] = molecular target: MAP kinase-activated protein kinase 2 (Homo sapiens) (UniProt P49137); assay: Inhibition of full length recombinant human His-tagged MAPKAPK2 expressed in Escherichia coli at 10 uM by Z'-LYTE assay relative to control
[2] = molecular target: Epidermal growth factor receptor (Homo sapiens) (UniProt P00533); assay: Inhibition of recombinant human GST-tagged EGFR cytoplasmic domain (668 to 1210 residues) expressed in baculovirus expression system at 10 uM by Z'-LYTE assay relative to control
[3] = molecular target: RAC-alpha serine/threonine-protein kinase (Homo sapiens) (UniProt P31749); assay: Inhibition of full length recombinant human His-tagged PKBalpha expressed in baculovirus expression system at 10 uM by Z'-LYTE assay relative to control
[4] = molecular target: Vascular endothelial growth factor receptor 2 (Homo sapiens) (UniProt P35968); assay: Inhibition of recombinant human His-tagged KDR cytoplasmic domain (789 to 1356 residues) expressed in baculovirus expression system at 10 uM by Z'-LYTE assay relative to control
Vascular endothelial growth factor receptor 2 (Homo sapiens), sequence (P35968 whole entry, the tested form may be a part): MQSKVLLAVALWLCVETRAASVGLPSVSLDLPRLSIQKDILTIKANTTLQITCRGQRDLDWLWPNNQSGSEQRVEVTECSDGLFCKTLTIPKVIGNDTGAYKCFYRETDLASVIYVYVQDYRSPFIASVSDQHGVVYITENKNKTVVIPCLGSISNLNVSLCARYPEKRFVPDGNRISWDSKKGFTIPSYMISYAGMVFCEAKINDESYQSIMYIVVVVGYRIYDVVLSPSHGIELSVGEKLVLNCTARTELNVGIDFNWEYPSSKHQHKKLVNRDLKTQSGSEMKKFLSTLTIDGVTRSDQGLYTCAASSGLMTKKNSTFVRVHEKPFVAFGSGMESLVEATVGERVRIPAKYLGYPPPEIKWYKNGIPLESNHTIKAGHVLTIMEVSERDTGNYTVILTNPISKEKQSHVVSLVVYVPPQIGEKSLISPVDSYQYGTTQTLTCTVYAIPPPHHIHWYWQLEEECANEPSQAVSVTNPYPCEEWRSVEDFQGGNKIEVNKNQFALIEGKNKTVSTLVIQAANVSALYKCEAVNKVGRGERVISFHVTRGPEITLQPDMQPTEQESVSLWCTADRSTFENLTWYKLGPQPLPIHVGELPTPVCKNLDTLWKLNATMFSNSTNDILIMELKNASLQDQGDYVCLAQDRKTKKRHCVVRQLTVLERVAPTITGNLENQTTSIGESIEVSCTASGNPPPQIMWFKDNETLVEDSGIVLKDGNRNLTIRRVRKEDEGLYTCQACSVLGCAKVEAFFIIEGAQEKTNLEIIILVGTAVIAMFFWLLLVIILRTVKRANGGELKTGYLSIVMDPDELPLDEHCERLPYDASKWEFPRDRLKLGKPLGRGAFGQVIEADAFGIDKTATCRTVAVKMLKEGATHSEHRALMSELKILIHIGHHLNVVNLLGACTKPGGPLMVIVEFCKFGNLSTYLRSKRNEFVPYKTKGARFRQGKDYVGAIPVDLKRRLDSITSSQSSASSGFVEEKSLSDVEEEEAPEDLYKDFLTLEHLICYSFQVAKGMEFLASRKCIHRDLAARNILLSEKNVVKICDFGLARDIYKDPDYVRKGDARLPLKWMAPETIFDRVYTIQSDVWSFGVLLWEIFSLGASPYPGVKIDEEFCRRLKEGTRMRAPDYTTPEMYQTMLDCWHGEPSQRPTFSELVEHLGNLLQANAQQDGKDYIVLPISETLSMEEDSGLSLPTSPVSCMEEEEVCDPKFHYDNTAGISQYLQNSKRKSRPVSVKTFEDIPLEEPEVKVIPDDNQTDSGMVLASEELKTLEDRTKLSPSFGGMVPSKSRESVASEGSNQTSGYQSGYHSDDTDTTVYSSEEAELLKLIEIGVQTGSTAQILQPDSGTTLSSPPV

[5] = molecular target: Rho-associated protein kinase 1 (Homo sapiens) (UniProt Q13464); assay: Inhibition of recombinant human GST-tagged ROCK1 catalytic domain (1 to 535 residues) expressed in baculovirus expression system at 10 uM relative to control
Rho-associated protein kinase 1 (Homo sapiens), sequence (Q13464 2-1354 limits assumed): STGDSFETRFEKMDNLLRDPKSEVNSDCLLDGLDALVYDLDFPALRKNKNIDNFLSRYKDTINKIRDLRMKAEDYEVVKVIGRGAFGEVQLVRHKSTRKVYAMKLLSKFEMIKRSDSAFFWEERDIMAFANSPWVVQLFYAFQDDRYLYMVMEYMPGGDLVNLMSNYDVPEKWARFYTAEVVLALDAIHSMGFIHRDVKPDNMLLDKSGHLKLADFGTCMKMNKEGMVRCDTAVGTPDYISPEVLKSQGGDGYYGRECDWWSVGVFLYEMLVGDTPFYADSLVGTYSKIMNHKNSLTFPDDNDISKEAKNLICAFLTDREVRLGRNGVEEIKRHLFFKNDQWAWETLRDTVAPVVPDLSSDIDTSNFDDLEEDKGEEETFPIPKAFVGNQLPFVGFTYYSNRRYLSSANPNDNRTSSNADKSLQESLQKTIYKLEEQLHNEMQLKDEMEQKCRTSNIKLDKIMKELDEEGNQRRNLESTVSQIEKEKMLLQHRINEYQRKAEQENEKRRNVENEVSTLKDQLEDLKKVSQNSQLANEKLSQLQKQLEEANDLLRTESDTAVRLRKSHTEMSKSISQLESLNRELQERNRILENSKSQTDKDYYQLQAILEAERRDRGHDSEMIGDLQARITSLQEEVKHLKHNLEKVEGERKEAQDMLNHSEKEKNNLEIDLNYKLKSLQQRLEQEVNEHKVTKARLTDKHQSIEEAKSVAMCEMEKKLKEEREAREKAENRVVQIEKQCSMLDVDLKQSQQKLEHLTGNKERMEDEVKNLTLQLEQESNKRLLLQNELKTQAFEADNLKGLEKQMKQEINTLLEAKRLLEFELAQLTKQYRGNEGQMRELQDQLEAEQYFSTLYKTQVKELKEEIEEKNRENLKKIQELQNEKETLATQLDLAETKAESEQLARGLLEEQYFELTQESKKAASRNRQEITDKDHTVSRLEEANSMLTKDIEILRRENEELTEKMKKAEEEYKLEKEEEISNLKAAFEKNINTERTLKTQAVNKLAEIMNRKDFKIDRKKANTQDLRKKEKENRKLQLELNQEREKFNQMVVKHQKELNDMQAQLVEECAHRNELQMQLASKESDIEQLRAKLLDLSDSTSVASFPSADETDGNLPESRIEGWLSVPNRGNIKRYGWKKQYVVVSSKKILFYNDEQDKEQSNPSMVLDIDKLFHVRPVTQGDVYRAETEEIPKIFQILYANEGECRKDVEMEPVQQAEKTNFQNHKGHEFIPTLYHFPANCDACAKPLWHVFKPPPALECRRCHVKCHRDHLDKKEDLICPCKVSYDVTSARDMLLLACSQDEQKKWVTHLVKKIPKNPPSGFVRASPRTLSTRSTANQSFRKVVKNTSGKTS

[6] = molecular target: Proto-oncogene tyrosine-protein kinase Src (Homo sapiens) (UniProt P12931); assay: Inhibition of recombinant human C-terminal His-tagged SRC cytoplasmic domain expressed in baculovirus expression system at 10 uM by Z'-LYTE assay relative to control
[7] = molecular target: Mitogen-activated protein kinase 14 (Homo sapiens, UniProt Q16539); assay: Inhibition of full length recombinant human GST-tagged p38alpha expressed in Escherichia coli at 10 uM using Ser/Thr04 peptide as substrate in presence of inactive MAPKAPK2 after 1 hr by FRET assay relative to control
[8] = molecular target: Casein kinase II subunit alpha (Homo sapiens) (UniProt P68400); assay: Inhibition of full length recombinant human His-tagged CK2alpha1 expressed in baculovirus expression system at 10 uM by Z'-LYTE assay relative to control
[9] = molecular target: Protein kinase C beta type (Homo sapiens) (UniProt P05771); assay: Inhibition of full length recombinant human PKCbeta1 expressed in baculovirus expression system at 10 uM relative to control
Protein kinase C beta type (Homo sapiens), sequence (P05771 2-671 limits assumed): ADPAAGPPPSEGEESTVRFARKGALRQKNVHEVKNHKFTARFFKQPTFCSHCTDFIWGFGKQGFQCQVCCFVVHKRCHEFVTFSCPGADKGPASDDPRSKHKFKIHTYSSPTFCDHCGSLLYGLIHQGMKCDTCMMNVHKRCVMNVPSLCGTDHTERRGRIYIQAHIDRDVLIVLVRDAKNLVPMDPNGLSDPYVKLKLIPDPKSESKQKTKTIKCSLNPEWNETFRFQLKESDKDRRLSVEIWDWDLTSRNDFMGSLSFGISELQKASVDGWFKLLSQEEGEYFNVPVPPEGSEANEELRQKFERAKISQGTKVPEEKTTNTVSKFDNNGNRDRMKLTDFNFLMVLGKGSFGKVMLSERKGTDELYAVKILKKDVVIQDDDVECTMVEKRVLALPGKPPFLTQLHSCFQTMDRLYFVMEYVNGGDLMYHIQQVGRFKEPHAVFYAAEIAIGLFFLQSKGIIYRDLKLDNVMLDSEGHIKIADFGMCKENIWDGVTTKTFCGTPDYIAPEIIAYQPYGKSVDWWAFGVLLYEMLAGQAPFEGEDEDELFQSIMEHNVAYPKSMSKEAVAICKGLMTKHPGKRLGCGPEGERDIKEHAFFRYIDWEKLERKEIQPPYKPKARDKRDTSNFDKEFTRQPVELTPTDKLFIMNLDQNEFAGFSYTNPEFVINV

[10] = molecular target: Tyrosine-protein kinase Lck (Homo sapiens) (UniProt P06239); assay: Inhibition of recombinant human C-terminal His-tagged LCK cytoplasmic domain expressed in baculovirus expression system at 10 uM by Z'-LYTE assay relative to control
Tyrosine-protein kinase Lck (Homo sapiens), sequence (P06239 2-509 limits assumed): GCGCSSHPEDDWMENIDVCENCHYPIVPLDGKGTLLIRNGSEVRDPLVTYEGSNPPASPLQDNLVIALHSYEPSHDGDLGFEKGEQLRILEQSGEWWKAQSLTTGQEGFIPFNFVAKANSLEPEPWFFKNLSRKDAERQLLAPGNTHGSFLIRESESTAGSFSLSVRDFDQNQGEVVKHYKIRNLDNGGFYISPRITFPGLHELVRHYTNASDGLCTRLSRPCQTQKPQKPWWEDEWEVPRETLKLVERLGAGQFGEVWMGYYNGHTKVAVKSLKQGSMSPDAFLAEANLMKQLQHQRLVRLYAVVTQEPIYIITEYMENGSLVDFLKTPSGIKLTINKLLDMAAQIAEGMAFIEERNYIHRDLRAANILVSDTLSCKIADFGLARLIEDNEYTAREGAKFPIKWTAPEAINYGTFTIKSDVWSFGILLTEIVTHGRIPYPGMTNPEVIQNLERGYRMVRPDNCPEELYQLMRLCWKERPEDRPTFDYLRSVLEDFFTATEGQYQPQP

[11] = molecular target: Platelet-derived growth factor receptor beta (Homo sapiens) (UniProt P09619); assay: Inhibition of recombinant human His-tagged PDGFRbeta cytoplasmic domain (558 to 1106 residues) expressed in baculovirus expression system at 10 uM by Z'-LYTE assay relative to control
Platelet-derived growth factor receptor beta (Homo sapiens), sequence (P09619 whole entry, the tested form may be a part): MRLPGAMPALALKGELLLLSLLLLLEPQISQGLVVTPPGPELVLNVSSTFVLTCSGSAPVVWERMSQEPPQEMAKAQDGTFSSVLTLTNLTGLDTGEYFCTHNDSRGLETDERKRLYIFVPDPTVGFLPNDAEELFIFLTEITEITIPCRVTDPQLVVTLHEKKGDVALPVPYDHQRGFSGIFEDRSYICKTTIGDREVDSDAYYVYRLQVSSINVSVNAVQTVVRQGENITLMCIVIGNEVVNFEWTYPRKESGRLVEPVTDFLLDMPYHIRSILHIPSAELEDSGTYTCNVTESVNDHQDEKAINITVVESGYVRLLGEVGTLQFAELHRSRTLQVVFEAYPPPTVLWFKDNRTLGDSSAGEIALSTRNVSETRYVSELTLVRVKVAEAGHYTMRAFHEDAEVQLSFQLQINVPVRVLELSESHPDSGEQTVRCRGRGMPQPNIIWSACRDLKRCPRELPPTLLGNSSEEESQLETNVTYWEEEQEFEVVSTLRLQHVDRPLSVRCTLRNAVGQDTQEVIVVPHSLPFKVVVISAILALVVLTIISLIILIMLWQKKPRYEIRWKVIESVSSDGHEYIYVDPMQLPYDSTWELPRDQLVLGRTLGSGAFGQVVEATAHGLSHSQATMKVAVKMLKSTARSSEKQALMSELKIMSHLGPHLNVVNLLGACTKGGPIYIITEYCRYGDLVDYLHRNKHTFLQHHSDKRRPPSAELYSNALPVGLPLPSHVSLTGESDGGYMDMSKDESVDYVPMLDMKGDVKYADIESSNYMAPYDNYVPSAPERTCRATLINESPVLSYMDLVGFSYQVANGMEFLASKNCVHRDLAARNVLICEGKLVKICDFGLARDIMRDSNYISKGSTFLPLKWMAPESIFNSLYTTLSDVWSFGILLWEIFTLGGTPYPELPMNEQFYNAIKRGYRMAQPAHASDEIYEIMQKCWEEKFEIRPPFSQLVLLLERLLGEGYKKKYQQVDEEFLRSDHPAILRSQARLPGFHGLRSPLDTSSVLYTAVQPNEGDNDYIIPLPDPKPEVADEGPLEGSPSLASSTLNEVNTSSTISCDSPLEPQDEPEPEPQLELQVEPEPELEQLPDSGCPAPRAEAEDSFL

[12] = molecular target: Tyrosine-protein kinase BTK (Homo sapiens) (UniProt Q06187); assay: Inhibition of recombinant human His-tagged BTK cytoplasmic domain expressed in baculovirus expression system at 10 uM by Z'-LYTE assay relative to control
[13] = molecular target: Fibroblast growth factor receptor 1 (Homo sapiens) (UniProt P11362); assay: Inhibition of recombinant human His-tagged FGFR1 cytoplasmic domain (308 to 731 residues) expressed in baculovirus expression system at 10 uM by Z'-LYTE assay relative to control

`CC1=Nc2c(Sc3ccccc3)ncnc2Sc2ccccc21` was tested, and the inhibition [1] was 8%, the inhibition [2] was 1% and the inhibition [3] was 5%. For the same molecule, the inhibition [4] was 12%, the inhibition [5] was 2% and the inhibition [6] was 3%. It also gave an inhibition [7] of 37%, an inhibition [8] of 3% and an inhibition [9] of 1%. For the same molecule, the inhibition [10] was 10%, the inhibition [11] was -1% and the inhibition [12] was 3%. It also gave an inhibition [13] of -4%.

— ChEMBL document CHEMBL3997765 (Medchemcomm, 2016)
